US11433053B2, “LSD1 inhibitor and preparation method and application thereof” (CSPC ZHONGQI PHARMACEUTICAL TECHNOLOGY (SHIJIAZHUANG) CO., …, priority 2017, dated 2022)

Legend:
human LSD1 = human LSD1 (Homo sapiens (Human), UniProt O60341); assay: Evaluation of enzyme activity: LSD1 fluorescence coupling enzyme assay (HRP/Amplex Red); assay type: biochemical; conditions: human LSD1, histone H3(1-21)K4me2 peptide 10 μM, 30 min pre-incubation
Method: The purpose of this test is to test the in vitro inhibitory activities of the compounds against LSD1. The enzyme used in this experiment was human LSD1, and the standard substrate was histone H3(1-21)K4me2 peptide (10 μM). HCI-2509 (SP2509) was used as reference compound, and the fluorescence coupling enzyme assay was employed. The production of FAD-dependent H2O2 as a result of demethylase activity of LSD1 was measured by coupling with HRP and Amplex Red. Compounds as well as control compound HCl-2509 were tested in 10-dose IC50 mode with a 3-fold serial dilution in duplicate starting at 10 μm. All compounds were pre-incubated 30 mins with enzyme before added substrate to start reaction. Fluorescence measurement: Ex/Em=535/590 by EnVision.
The test compound's inhibitory activities against LSD11 was classified as: + for IC50≤50 nM; ++ for IC50>50 nM and ≤100 nM; +++ for IC50>100 nM and ≤500 nM, and the results are shown in Table 1.

H1417 cells = assay: Cell proliferation inhibitory activity on H1417 cells (CellTiter-Glo, 10 days); assay type: cell-based, human; conditions: Homo sapiens; for IC50: NCI-H1417, 240 h, H1417 cells, 10 days incubation; for Emax: NCI-H1417, H1417 cells, highest percentage inhibition of cell viability, read-out: Maximum inhibition percentage (%)
Method: Experimental purposes: To test the proliferation inhibitory activities of the test compounds on H1417 cells.
Experimental materials: RPMI 1640 medium, fetal bovine serum, Promega CellTiter-Glo reagent. The H1417 cell line purchased from ATCC. Envision Multi-Label Analyzer (PerkinElmer).
Experimental method: H1417 cells were seeded in a black 384-well plate, 1000 cells per well in […] of cell suspension. The test compounds were diluted 3-fold with Epmotion to the 10th concentration i.e, the compounds were diluted from 10 mmol to […], and a double duplicate well experiment was set. 198 μL medium was added to the middle plate, according to the corresponding position, 2 μL gradient diluted compounds were added to the middle plate. The mixture was mixed evenly and transferred 20 μL per well to the cell plates. The cell plates were incubated in a carbon dioxide incubator for 10 days. 25 μL of Promega CellTiter-Glo reagent per well was added to the cell plate and the mixture was incubated for 10 minutes at room temperature to stabilize the luminescence signal. Readings were performed by PerkinElmer Envision multi-label analyzer.
Data analysis: The original data was converted to the inhibition rate by the equation (Max-Ratio)/(Max-Min)*100%, and the value of IC50 can be obtained by curve fitting with four parameters. (Model 205 in XLFIT5, iDBS)
The growth inhibitory activities of the test compounds on H1417 cells were classified as + for IC50≤100 nM; ++ for IC50>100 nM and ≤500 nM; +++ for IC50>500 nM and ≤1000 nM; the highest percentage inhibition of cell viability was classified as: […]; 90%>B≥70%; 70%>C≥50%.

[1] = Pharmacokinetic evaluation in C57BL/6 mice after intravenous and oral administration; assay type: in vivo; conditions: male, mouse, plasma
Method: Experimental purposes: To test the pharmacokinetics of compounds in C57BL/6 mice
C57BL/6 mice (male, 7-9 weeks old, Shanghai Slack)
Test the pharmacokinetics characteristics of rodents after intravenous and oral administration in accordance with standard protocols, and the candidate compound was formulated into a clear solution in the experiment. The mice were administered by intravenous injection and orally once. The intravenous and oral vehicle is a 10% aqueous solution of hydroxypropyl β-cyclodextrin or a physiological saline solution. Six male C57BL/6 mice were employed in this assay, three of them were administered intravenously at a dose of 1 mg/kg, plasma samples were collected at 0 h (before administration) and 0.0833, 0.25, 0.5, 1, 2, 4, 7, 24 h after administration. Another three mice were administered by oral gavage at a dose of 2 mg/kg, plasma samples were collected at 0 h (before administration) and 0.5, 1, 2, 3, 4, 6, 24 h after administration. Collect whole blood samples within 24 hours, centrifuge at 3000 g for 15 minutes, separate the supernatant to obtain a plasma sample, 4 times volume of the internal standard acetonitrile solution was added to precipitate the protein. Centrifuge the supernatant and add an equal volume of water and centrifuge to take the supernatant. LC-MS/MS was used to quantitatively analyze plasma concentrations and calculate pharmacokinetic parameters such as max concentration (Cmax), clearance (CL), half-life (T1/2), volumes of distribution (Vdss), the area under the plasma concentration-time curve (AUC0-last), bioavailability (F), etc.

Which IC50 (human LSD1) does the source give for `N[C@@H]1CCC[C@H](c2nc(C3(CN[C@@H]4C[C@H]4c4ccccc4)CC3)no2)C1` [Example 220] here?
The IC50 was 50 to 100 nM.

And the IC50 (H1417 cells)?
Its IC50 is 100 to 500 nM.

What about the Emax (H1417 cells) of the same molecule?
Its Emax is 70 to 90%.

Which IC50 (human LSD1) does the source give for `Clc1ccc(-c2noc(C3(CN[C@H]4CC4c4ccccc4)CC3)n2)cc1` (some centres unmarked) [Example 69] here?
Its IC50 is no more than 50 nM.

What about the IC50 (H1417 cells) of the same molecule?
Its IC50 is 500 to 1000 nM.

And the Emax (H1417 cells)?
Its Emax is 50 to 70%.

For `N[C@H]1CC[C@H](Cc2nc(C3(CN[C@H]4CC4c4ccccc4)CC3)no2)CC1` (some centres unmarked) [Example 225], which IC50 (human LSD1) is on record?
Its IC50 is no more than 50 nM.

What about the IC50 (H1417 cells) of the same molecule?
The IC50 was 100 to 500 nM.

And the Emax (H1417 cells)?
The Emax was 90 to 100%.

With `O=C(O)c1ccc(CN2CCC(c3nc(C4(CN[C@@H]5CC5c5ccccc5)CC4)no3)CC2)cc1` (some centres unmarked) [Example 169] as the molecule, how does the IC50 (H1417 cells) read?
Its IC50 is 500 to 1000 nM.

And the Emax (H1417 cells)?
Its Emax is 50 to 70%.

And the Cmax ([1]; IV 1 mg/kg, oral 2 mg/kg, route of Cmax not stated, read-out: max concentration Cmax)?
Its Cmax is 763 ng/mL.

And the clearance ([1]; IV 1 mg/kg, read-out: clearance CL)?
Its clearance is 43.4 mL/min/kg.

What about the half-life ([1]; IV 1 mg/kg, read-out: half-life T1/2 (IV, h) (converted)) of the same molecule?
Its half-life is 1 h.

And the Vd ([1]; IV 1 mg/kg, read-out: volumes of distribution Vdss)?
The Vd was 0.5 L/kg.

And the bioavailability ([1]; PO 2 mg/kg vs IV 1 mg/kg, read-out: bioavailability F (%))?
The bioavailability was 20.6%.

What about the AUC(0-t) ([1]; PO 2 mg/kg, read-out: the area under the plasma concentration-time curve AUC0-last PO) of the same molecule?
Its AUC(0-t) is 0.329 µM·h.

What does the source list for `FC(F)Oc1ccc(-c2nc(C3(CN[C@H]4CC4c4ccccc4)CCC3)no2)cc1` (some centres unmarked) [Example 89]?
IC50 (human LSD1): ≤ 50 nM; IC50 (H1417 cells): 100 to 500 nM; Emax (H1417 cells): 50 to 70%

With `NCC1(CN[C@H]2CC2c2ccccc2)CC1` (some centres unmarked) [Example 4] as the molecule, how does the IC50 (human LSD1) read?
Its IC50 is no more than 50 nM.

What about the IC50 (H1417 cells) of the same molecule?
Its IC50 is no more than 100 nM.

What about the Emax (H1417 cells) of the same molecule?
Its Emax is 50 to 70%.

What does the source list for `O=C(O)[C@@H]1CC[C@H](c2nc(C3(CN[C@H]4CC4c4ccccc4)CC3)no2)C1` (some centres unmarked) [Example 178]?
IC50 (human LSD1): 100 to 500 nM; IC50 (H1417 cells): 500 to 1000 nM; Emax (H1417 cells): 70 to 90%

For `c1ccc(C2C[C@@H]2NCC2(c3noc(-c4cn5c(n4)CCCC5)n3)CC2)cc1` (some centres unmarked) [Example 162], which IC50 (human LSD1) is on record?
The IC50 was no more than 50 nM.

What about the IC50 (H1417 cells) of the same molecule?
The IC50 was 500 to 1000 nM.

And the Emax (H1417 cells)?
The Emax was 90 to 100%.

For `c1ccc([C@@H]2C[C@H]2NCC2(CN3CCCNCC3)CC2)cc1` [Example 230], which IC50 (human LSD1) is on record?
Its IC50 is 100 to 500 nM.

What about the IC50 (H1417 cells) of the same molecule?
The IC50 was 100 to 500 nM.

And the Emax (H1417 cells)?
The Emax was 50 to 70%.

Which results are given for `Clc1ccc(-c2nnc(C3(CN[C@H]4CC4c4ccccc4)CC3)o2)cc1` (some centres unmarked) [Example 70]?
IC50 (human LSD1): ≤ 50 nM; IC50 (H1417 cells): 100 to 500 nM; Emax (H1417 cells): 90 to 100%

With `NC(=O)c1ccc(-c2nc(C3(CN[C@H]4CC4c4ccccc4)CC3)no2)cc1` (some centres unmarked) [Example 182] as the molecule, how does the IC50 (human LSD1) read?
Its IC50 is no more than 50 nM.

And the IC50 (H1417 cells)?
The IC50 was 500 to 1000 nM.

And the Emax (H1417 cells)?
Its Emax is 90 to 100%.

Which IC50 (human LSD1) does the source give for `C[C@@H]1CCCN1CC1(CN[C@H]2CC2c2ccccc2)CC1` (some centres unmarked) [Example 213] here?
The IC50 was no more than 50 nM.

What about the IC50 (H1417 cells) of the same molecule?
Its IC50 is 100 to 500 nM.

And the Emax (H1417 cells)?
The Emax was 50 to 70%.

For `FC(F)(F)c1ccc(-c2nc(C3(CN[C@H]4CC4c4ccccc4)CCC3)no2)cc1` (some centres unmarked) [Example 132], which IC50 (human LSD1) is on record?
Its IC50 is no more than 50 nM.

And the IC50 (H1417 cells)?
Its IC50 is 100 to 500 nM.

What about the Emax (H1417 cells) of the same molecule?
Its Emax is 50 to 70%.

With `c1ccc([C@@H]2C[C@H]2NCC2(c3noc([C@H]4C[C@H]5CNC[C@H]5C4)n3)CC2)cc1` [Example 156] as the molecule, how does the IC50 (human LSD1) read?
Its IC50 is 50 to 100 nM.

And the IC50 (H1417 cells)?
The IC50 was 100 to 500 nM.

What about the Emax (H1417 cells) of the same molecule?
The Emax was 70 to 90%.
